As usually defined, the Kd is the equilibrium constant for the complex coming apart. As usually defined, the inhibition is the share of the control response that was lost under treatment. Usually half-life stands for the time needed for the level to fall by half in the phase considered. Read a high half-life as slow loss.

One series deals with T1, human galectin-1 (gal-1) (Homo sapiens, UniProt P09382).
T1 construct: made in house; host or cells: E. coli BL21 (DE3)
The series can be described thus: 1H-15N HSQC NMR binding of OTX-008 to 15N-labeled gal-1. The settings on record: total gal-1 monomer 60 μM, pH 7.0, 30° C., HSQC intensity changes averaged over all resonances; read-out: Kd, estimate from mid-point of saturable binding curve (free OTX-008 at 50% intensity change). As to the method:
Galectin-1 preparation. […] Typically, 44 milligrams of purified protein were obtained from 1 liter of cell culture. The purity of the final sample was quantified by using the Biorad protein assay and was checked for purity by using SDS PAGE. Functional activity of the purified protein was assessed by a T-cell death assay (Nesmelova et al., 2008, Biomol NAR Assignments; 2(2):203-205).
Heteronuclear NMR Spectroscopy. […]
NMR experiments were carried out at 30° C. on a Varian Unity Inova 600-MHz spectrometer equipped with an H/C/N triple-resonance probe and x/y/z triple-axis pulse field gradient unit. […] Raw data were converted and processed by using NMRPipe (Delaglio et al., 1995, J Biomol NMR; 6(3):277-293) and were analyzed by using NMRview (Johnson, 2004, Methods Mol Biol; 278:313-352).
Although an accurate equilibrium ligand dissociation constant, Kd cannot always be determined from data such as these, a plot of OTX-008-induced intensity changes averaged over all resonances vs. the concentration of OTX-008 does yield a saturable binding curve (inset of FIG. 2). […]

Series [1] addresses T2, gal-1 binding to cell surface glycans on splenocytes (CD4+ and CD8+ leukocytes, CD31+ endothelial cells) (Homo sapiens, UniProt P09382).
T2 construct: made in house; host or cells: E. coli BL21 (DE3) (the only gal-1 preparation described)
The series can be described thus: Flow cytometry: FITC-gal-1 binding to cell surface glycans on splenocytes. The settings on record: for inhibition at 20 µM: 20 μM OTX-008, 0.1 μM gal-1; for inhibition at 100 µM: 100 μM OTX-008. It counts as cell-based, gal-1 null mice. The procedure:
FIGS. 6A and 6B depict the results of flow cytometry used to assess the effects of OTX-008 (“0118”) on FITC-gal-1 binding to splenocytes (CD4+ and CD8+ leukocytes and CD31+ endothelial cells). FIG. 6A illustrates the binding of FITC-gal-1 (0.1 μM or 0.2 μM) to these cells as a function of OTX-008 concentration. FIG. 6B illustrates the binding to CD4+ and CD8+ leukocytes and CD31+ endothelial cells derived from male or female gal-1−/− null mice. FITC-Galectin-1 preparation. Gal-1 was conjugated with fluorescein isothiocyanate (FITC) using a FITC:protein molar ratio of 10:1. Gal-1 (2 mg/ml) was dissolved in […] of 20 mM potassium phosphate buffer, pH 7.4, followed by addition of approximately 50 μL FITC (10 mg/ml) that had been dissolved in 0.1 mM sodium bicarbonate. The resulting lower pH (approximately pH 8) ensured selective labeling at the N-terminal amine group of the protein (Hungerford et al., 2007, Photochem Photobiol Sci; 6(2):152-158; and Hermanson, 2008, Bioconjugate Techniques, 2nd ed.; Academic Press: Burlington, Mass. Part 1, 1202 pp). This solution was then mixed thoroughly and incubated at room temperature (22° C.) for 18 hours in the dark. During the course of the reaction, the mixture was gently vortexed 3 or 4 times. The resulting FITC-labeled protein was separated from unbound dye by filtration using an Amicon Ultra cellulose filter (Millipore, 10 kDa cut-off). […] Flow Cytometry. Male and female gal-1 null mice (Jackson Laboratory) were provided water and standard chow ad libitum and were maintained on a 12-hour light/dark cycle prior to experiments that were approved by the University of Minnesota Research Animal Resources Ethical Committee. For FACS experiments, spleens from these mice (6-10 weeks old) were harvested and non-enzymatically disrupted by shear force to yield single-cell suspensions (Dings et al., 2011, Clin Cancer Res; 17(10):3134-3145). Cell suspensions were prepared in Hanks's balanced solution. Red blood cells were lysed in ACK (Lonza Walkersville) for 5 minutes on ice and suspensions were filtered through nylon mesh. Spleen cells were then washed and incubated with monoclonal antibodies as indicated for 40 minutes on ice. After an additional washing step, various concentrations of gal-1 (with or without OTX-008) were added and incubated for 30 minutes on ice. Prior to FACS analysis, cell suspensions were washed once more and analyzed by multi-parameter flow cytometry on a LSR II flow cytometer (BD Biosciences) using Flowjo software (Tree Star, Inc.) (Dings et al., 2011, Clin Cancer Res; 17(10):3134-3145).
Background: A flow cytometer gives signals particle by particle.

The next series relates to Jurkat E6.1 cells. The series can be described thus: Agglutination assay, gal-1 induced. It counts as cell-based. The settings on record: Homo sapiens, 20 μM OTX-008, 1 μM gal-1, 22° C., read-out: inhibition of cell agglutination. As to the method:
FIG. 7 depicts Jurkat E6.1 cells agglutination as induced by addition of 1 μM gal-1 and incubated at 22° C. on plastic, round bottom chamber slides (Nunc, Naperville, Ill., USA), in medium alone or in the presence of 20 μM OTX-008 (“0118”).
Agglutination Assay. Jurkat E6.1 cells (2×10^6/200 μL RPMI 1640 medium) agglutination was induced by 1 μM gal-1 and were incubated on plastic round bottom chamber slides (Nunc, Naperville, Ill., USA) in medium alone or with 20 μM OTX-008 at 22° C. Subsequently the cells were analyzed for agglutination with an Axiovert 10 inverted phase microscope equipped with a digital camera system (Zeiss, Germany), and digitally analyzed and differentially quantified by morphometric analysis, as described earlier (Dings et al., 2008, Cancer Lett; 265(2):270-280; and Dings et al., 2010, Bioconjugate Chem; 21(1):20-27).

The next series relates to human cancer cell lines. The series can be described thus: Cell viability assay (MTT). It counts as cell-based. As to conditions: 72 h drug exposure, 48 h wash-out. An excerpt: FIGS. 8A-8C illustrate the concentration of OTX-008 (“0118”) required for inhibiting cell viability is proportional to Gal-1 expression. FIG. 8A illustrates the anti-viability effects (expressed as % change in cell numbers over time) of OTX-008 using the MTT assay in human cancer cell lines. FIG. 8B illustrates cancer cells that are sensitive to OTX-008 expressed […] galectin-1 protein expression as determined using Western Blot analysis. FIG. 8C illustrates that concentration of OTX-008, as established by plotting the IC50 in cancer cells, is proportional to their relative LGALS1 mRNA expression as assessed by qRT-PCR.
Cell lines. HEP2, SQ20B, HT29, DU145, and SKHEP1 cells were obtained from the ATCC (Rockville, Md., USA). COL0205-S cells were obtained from the National Cancer Institute collection. […]
Cell viability assay. Cell viability (i.e. cell proliferation and/or cytotoxicity) was determined using the MTT assay (3-[4,5-dimethylthiazol-2-yl]-2,5-diphenyltetrazolium bromide; Sigma, Saint-Quentin Fallavier, France). […] After incubation, the supernatant was discarded, insoluble formazan precipitates were dissolved in 0.1 mL of DMSO and the absorbance was measured at 560 nm by use of a microplate reader (Thermo, France). […] IC50 was determined as half the maximal inhibitory drug concentration for each cell line.

Series [2] in a line: Phase I clinical trial with terminal cancer patients. It counts as in vivo, human. As to conditions: preliminary, daily subcutaneous injection, 1 mg/Kg. An excerpt: In an embodiment, OTX-008 is a therapeutic agent for use against cancer. As a therapeutic agent, calixarene OTX-008 is a significant improvement over both Anginex and 6DBF7, as well as over any carbohydrate-based compound, for multiple reasons. OTX-008 (937 Da) approaches the generally accepted definition of a “small molecule” (i.e. <500 Da). OTX-008 should have better in vivo exposure, because it is non-peptidic and non-carbohydrate, and therefore is non-hydrolyzable. Moreover, because of its aryl-crown structure, OTX-008 should be chemically stable and less likely to be metabolized in vivo than any peptide or carbohydrate-based compound. […] In an embodiment, OTX-008 is a promising anti-tumor agent that targets galectin-1 as a first-in-class therapeutic agent.

Where [3] appears, read: read-out: inhibition of gal-1 binding to CD4+ (or CD8+) cells.
Setting [4] is: read-out: inhibition of gal-1 binding to CD31+ cells.

Like-named read-outs stand apart in the source and are kept apart here.

T2 sequence (P09382 whole entry): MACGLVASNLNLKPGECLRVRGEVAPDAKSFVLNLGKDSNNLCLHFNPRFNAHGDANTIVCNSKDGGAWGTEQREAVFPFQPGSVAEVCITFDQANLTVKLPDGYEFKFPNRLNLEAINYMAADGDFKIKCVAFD
T1 sequence (P09382 whole entry): as above

On to `CN(C)CCNC(=O)COc1c2cccc1Cc1cccc(c1OCC(=O)NCCN(C)C)Cc1cccc(c1OCC(=O)NCCN(C)C)Cc1cccc(c1OCC(=O)NCCN(C)C)C2` [OTX-008], for which the Kd on human galectin-1 (gal-1) was roughly 30 µM. Besides, in series [1] (setting [3]), the inhibition at 20 µM is roughly 80% and the inhibition at 100 µM is 100%. In series [1] (setting [4]), the inhibition at 20 µM is roughly 50% and the inhibition at 100 µM is roughly 70%. In addition, in the series with Jurkat E6.1 cells, the inhibition at 20 µM was roughly 80%. In the series with human cancer cell lines, the “inhibition of cell viability on several cell types in culture” value is listed as “dose-dependent”. Besides, in series [2] (human, in vivo, sc), the half-life is roughly 48 h. Besides, in series [2], the disease state entry is given as “apparent stabilization of disease state” and the toxicity result was “absence of toxicity”.

These data come from US20140121278A1, “ANTI-TUMOR AGENT OTX-008 TARGETS HUMAN GALECTIN-1” (REGENTS OF THE UNIVERSITY OF MINNESOTA, priority 2012, published 2014).
